Measurements taken from patent US20250084056A1, “SUBSTITUTED OXOISOINDOLINYL PIPERIDINE-2,6-DIONE COMPOUNDS” (BRISTOL-MYERS SQUIBB COMPANY, priority 2023, published 2025).

How the values were obtained:
[1] = tested on: HCC1569 breast carcinoma xenograft model; test: In vivo xenograft tumor efficacy study, HCC1569; design: species or system mice; details: HCC1569 xenografts, repeated dosing
Experimental: The anti-cancer efficacy of Example 35 was evaluated in xenograft models by measuring the reduction in tumor volume in animals treated with Example 35 compared to vehicle control animals. First, 5-10×10^6 tumor cells/animal in a 1:1 Matrigel® mix (0.2 mL total volume) were injected subcutaneously into female NSG mice (for NIHOVCAR3) and SCID mice (for HCC1569). Both strains of mice were purchased from Jackson Laboratory. Once tumors reached ˜150-200 mm^3, animals were randomized into groups of 8-10 animals/treatment arm for efficacy studies. Example 35 was administered via oral gavage (PO) at indicated doses and regimens (Table 7). Tumor growth and body weight were measured twice/week during the course of the study to evaluate efficacy and signs of toxicity.
Example 35 was formulated in 10% ethanol, 10% Vitamin E—TPGS, 30% propylene glycol, 50% PEG400 and administered by oral gavage (final volume 0.2 mL) at the doses indicated in Table 7. […]
The efficacy for each treated arm at different dose levels were calculated using the following formula: % ΔT/ΔC=[(TVT−TVT0)/(TVC−TVC0)]×100%. […] The percentage of tumor growth inhibition was calculated from the formula: % TGI=[100%−(% ΔT/ΔC)]. […]
Example 35 was evaluated for in vivo single-agent efficacy against the HCC1569 breast carcinoma xenograft model and NIHOVCAR3 ovarian adenocarcinoma xenograft model.

Cyclin E1 = Cyclin E1 (Homo sapiens, UniProt P24864+Q96SW2); test: Cyclin E1 Cellular Degradation Assay (MSD); type: cell-based; design: endogenous in cells; host or cells: OVCAR3
In short: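 OVCAR3 cells treated with compound for 24 h at 37 °C, lysed, and cyclin E1 measured by MSD sandwich immunoassay (rabbit capture, mouse detection anti-CCNE1). Reference degrader at […] defined 110% response; DC50 and Dmax derived from response.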

Cyclin E1, sequence (P24864 whole entry): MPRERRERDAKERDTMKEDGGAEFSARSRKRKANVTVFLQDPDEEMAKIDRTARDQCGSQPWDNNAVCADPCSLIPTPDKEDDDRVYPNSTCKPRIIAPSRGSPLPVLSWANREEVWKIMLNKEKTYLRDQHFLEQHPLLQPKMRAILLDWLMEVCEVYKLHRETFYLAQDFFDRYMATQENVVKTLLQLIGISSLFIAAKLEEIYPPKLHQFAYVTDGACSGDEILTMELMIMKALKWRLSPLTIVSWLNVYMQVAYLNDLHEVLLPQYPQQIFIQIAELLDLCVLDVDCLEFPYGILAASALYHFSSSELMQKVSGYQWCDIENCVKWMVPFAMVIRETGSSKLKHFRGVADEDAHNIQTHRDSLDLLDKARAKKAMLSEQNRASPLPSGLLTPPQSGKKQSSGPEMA
Cyclin E1, sequence (Q96SW2 whole entry): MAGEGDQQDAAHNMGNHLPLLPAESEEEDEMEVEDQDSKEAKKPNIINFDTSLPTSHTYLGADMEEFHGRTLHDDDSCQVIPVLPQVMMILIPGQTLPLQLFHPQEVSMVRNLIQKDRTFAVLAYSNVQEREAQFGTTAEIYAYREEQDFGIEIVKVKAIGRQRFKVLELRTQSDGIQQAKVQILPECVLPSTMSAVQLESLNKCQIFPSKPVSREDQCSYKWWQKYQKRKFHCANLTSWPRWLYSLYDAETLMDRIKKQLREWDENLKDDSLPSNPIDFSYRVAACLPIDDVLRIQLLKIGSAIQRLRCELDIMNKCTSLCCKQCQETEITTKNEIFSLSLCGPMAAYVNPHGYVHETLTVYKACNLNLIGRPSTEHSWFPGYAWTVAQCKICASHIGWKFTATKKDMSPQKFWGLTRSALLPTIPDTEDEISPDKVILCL
Cyclin E1, sequence (Q16531 whole entry partner): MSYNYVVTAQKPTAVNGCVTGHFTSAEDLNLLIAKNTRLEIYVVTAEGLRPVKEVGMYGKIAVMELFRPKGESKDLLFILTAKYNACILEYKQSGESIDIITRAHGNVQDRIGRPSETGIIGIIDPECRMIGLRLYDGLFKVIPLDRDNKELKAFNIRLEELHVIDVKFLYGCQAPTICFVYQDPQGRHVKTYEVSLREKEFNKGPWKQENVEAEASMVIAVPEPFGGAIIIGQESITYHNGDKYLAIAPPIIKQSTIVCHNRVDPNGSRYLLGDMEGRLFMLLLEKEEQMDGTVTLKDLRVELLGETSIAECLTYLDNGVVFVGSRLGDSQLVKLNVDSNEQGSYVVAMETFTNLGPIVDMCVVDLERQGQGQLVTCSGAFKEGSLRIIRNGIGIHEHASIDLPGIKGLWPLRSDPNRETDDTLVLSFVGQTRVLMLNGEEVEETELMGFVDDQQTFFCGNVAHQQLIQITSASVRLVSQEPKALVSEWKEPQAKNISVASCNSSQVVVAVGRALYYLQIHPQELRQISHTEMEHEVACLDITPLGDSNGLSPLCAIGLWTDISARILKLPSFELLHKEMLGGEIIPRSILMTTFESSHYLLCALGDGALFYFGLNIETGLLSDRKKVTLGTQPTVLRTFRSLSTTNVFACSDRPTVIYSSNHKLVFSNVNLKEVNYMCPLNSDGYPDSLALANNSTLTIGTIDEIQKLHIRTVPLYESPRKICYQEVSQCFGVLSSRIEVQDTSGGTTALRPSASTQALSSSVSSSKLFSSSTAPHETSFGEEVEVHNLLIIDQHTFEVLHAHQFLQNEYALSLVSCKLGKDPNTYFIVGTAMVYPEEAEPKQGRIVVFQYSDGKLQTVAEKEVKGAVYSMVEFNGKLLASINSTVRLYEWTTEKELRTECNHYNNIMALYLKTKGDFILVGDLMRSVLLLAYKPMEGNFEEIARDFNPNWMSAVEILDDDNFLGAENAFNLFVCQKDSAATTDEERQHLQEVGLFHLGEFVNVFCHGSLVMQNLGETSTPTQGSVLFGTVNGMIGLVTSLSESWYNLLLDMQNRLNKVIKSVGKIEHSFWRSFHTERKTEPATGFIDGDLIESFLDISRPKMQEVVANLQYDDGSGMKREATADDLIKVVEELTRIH

COc1c(COC(=O)Nc2ccc(Oc3ccc(F)c(F)c3)cc2)ccc2c1C(=O)N([C@H]1CCC(=O)NC1=O)C2 (single isomer, unassigned) [Example 35, {2-[(3 S)-2,6-dioxopiperidin-3-yl]-4-methoxy-3-oxo-2,3-dihydro-1H-isoindol-5-yl}methyl N-[4-(3,4-difluorophenoxy)phenyl]carbamate]
anti-tumor activity [1]: dose-dependent anti-tumor activity
DC50 (Cyclin E1; Cyclin E1 cellular degradation): 159 nM
Dmax (Cyclin E1; Cyclin E1 cellular degradation, maximum degradation): 107%
Ratio of GSPT1 DC50/Cyclin E1 DC50 (Cyclin E1; selectivity for degradation of Cyclin E1 over GSPT1): >88
